Measured values taken from US20250230193A1, “CYCLIC COMPOUND HAVING SELECTIVE KRAS INHIBITORY EFFECT ON HRAS AND NRAS” (CHUGAI SEIYAKU KABUSHIKI KAISHA, priority 2022, published 2025).
Where a SMILES comes first, the peptide text is derived from it. Bridges are numbered along the chain shown (N, C = ends). [ ]: non-standard residue; d: D form. The star is where a group is joined. hPhe(3-Cl-4-CF3) = N[C@@H](CCc1ccc(C(F)(F)F)c(Cl)c1)C(=O)O; NPrPhe(4-CF3) = CCCN[C@@H](Cc1ccc(C(F)(F)F)cc1)C(=O)O; NMeGly(cPent) = CN[C@H](C(=O)O)C1CCCC1; NMeNva(3-Et) = CCC(CC)[C@H](NC)C(=O)O; NMeD = CN[C@@H](CC(=O)O)C(=O)O; NMeL = CN[C@@H](CC(C)C)C(=O)O; Morpholide = C1CN(*)CCO1; NMeA = CN[C@@H](C)C(=O)O; Aze = O=C(O)[C@@H]1CCN1; Ac4c = NC1(C(=O)O)CCC1; Sar = CNCC(=O)O

Experiments:
[1] = biological target: GDP-bound NRAS wild-type protein (Homo sapiens, UniProt P01111); assay: Binding to NRAS by surface plasmon resonance (SPR), Single Cycle Kinetics; conditions: SPR
GDP-bound NRAS wild-type protein, sequence (P01111 whole entry): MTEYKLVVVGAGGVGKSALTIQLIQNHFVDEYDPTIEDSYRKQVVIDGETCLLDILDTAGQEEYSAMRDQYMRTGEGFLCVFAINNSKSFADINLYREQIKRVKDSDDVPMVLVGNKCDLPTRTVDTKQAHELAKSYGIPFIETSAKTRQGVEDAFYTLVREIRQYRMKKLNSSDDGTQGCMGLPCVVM

[2] = biological target: GDP-bound HRAS wild-type protein (Homo sapiens, UniProt P01112); assay: Binding to HRAS by surface plasmon resonance (SPR), Single Cycle Kinetics; conditions: SPR
GDP-bound HRAS wild-type protein, sequence (P01112 whole entry): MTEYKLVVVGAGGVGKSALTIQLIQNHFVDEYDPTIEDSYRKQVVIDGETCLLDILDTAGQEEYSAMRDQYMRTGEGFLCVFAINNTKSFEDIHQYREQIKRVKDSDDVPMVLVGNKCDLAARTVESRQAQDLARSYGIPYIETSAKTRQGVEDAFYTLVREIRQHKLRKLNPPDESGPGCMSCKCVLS

[3] = GDP-bound NRAS wild-type vs GDP-bound KRAS wild-type
[4] = GDP-bound HRAS wild-type vs GDP-bound KRAS wild-type
[5] = KD ratio, GDP-bound NRAS wild-type vs GDP-bound KRAS wild-type
[6] = KD ratio, GDP-bound HRAS wild-type vs GDP-bound KRAS wild-type

Q: What does the source list for `CCCN1C(=O)CN(C)C(=O)CN(C)C(=O)[C@H]([C@@H](C)CC)NC(=O)[C@H](CC(C)C)N(C)C(=O)C[C@@H](C(=O)N2CCOCC2)N(C)C(=O)[C@H](C2CCCC2)N(C)C(=O)C2(CCC2)NC(=O)[C@@H]2CCCN2C(=O)[C@H](CCc2ccc(C(F)(F)F)c(Cl)c2)NC(=O)CN(C)C(=O)[C@@H]1Cc1ccc(C(F)(F)F)cc1` [PP0197] ([NMeL]I[Sar][Sar][NPrPhe(4-CF3)][Sar][hPhe(3-Cl-4-CF3)]P[Ac4c][NMeGly(cPent)][NMeD]-Morpholide; lactam N-11)?
A: NRAS/KRAS (ratio of KD for GDP-bound NRAS wild-type to KD for KRAS) ([1]; KD ratio NRAS/KRAS): B (a compound having 3 or more and less than 10 is denoted as B); HRAS/KRAS (ratio of KD for GDP-bound HRAS wild-type to KD for KRAS) ([2]; KD ratio HRAS/KRAS): C (A compound having a KD ratio of 0.1 or more and less than 3 is denoted as C)

Q: Which “NRAS/KRAS (ratio of KD value with respect to NRAS to KD value with respect to KRAS)” value [1, 3] does the source give for `CCCOC[C@H]1C(=O)N[C@@H]([C@@H](C)CC)C(=O)N(C)CC(=O)N(C)[C@H]2C/C=C\CCN(C2=O)[C@@H](Cc2ccc(C)cc2)C(=O)N(C)CC(=O)N[C@@H](CCc2ccc(C(F)(F)F)c(OC)c2)C(=O)N2C[C@H](OCC)C[C@H]2C(=O)N(C)C2(CCC2)C(=O)N(C)[C@@H](C(CC)CC)C(=O)N(C)[C@H](C(=O)N(C)C)CC(=O)N1C` [PP2323] here?
A: A (a compound having 10 or more and less than 20 is denoted as A)

Q: What about the “HRAS/KRAS (ratio of KD value with respect to HRAS to KD value with respect to KRAS)” value [2, 4] of the same molecule?
A: A (a compound having 10 or more and less than 20 is denoted as A)

Q: What does the source list for `CCO[C@@H]1C[C@H]2C(=O)NC3(CCC3)C(=O)N(C)[C@@H](C3CCCC3)C(=O)N(C)[C@H](C(=O)N(C)C)CC(=O)N(CC)[C@@H](CC(C)C)C(=O)N[C@@H]([C@@H](C)CC)C(=O)N(C)CC(=O)N(C)[C@H]3CC(C)=CCN(C3=O)[C@@H](Cc3ccc(C(F)(F)F)cc3)C(=O)N(C)CC(=O)N[C@@H](CCc3cc(F)c(C(F)(F)F)c(F)c3)C(=O)N2C1` [PP1037]?
A: NRAS/KRAS (ratio of KD value with respect to NRAS to KD value with respect to KRAS) [1, 5]: C (A compound having a KD ratio of 0.1 or more and less than 3 is denoted as C); HRAS/KRAS (ratio of KD value with respect to HRAS to KD value with respect to KRAS) [2, 6]: C (A compound having a KD ratio of 0.1 or more and less than 3 is denoted as C)

Q: Which “NRAS/KRAS (ratio of KD value with respect to NRAS to KD value with respect to KRAS)” value [1, 3] does the source give for `CCC[C@H]1C(=O)N[C@@H]([C@@H](C)CC)C(=O)N(C)CC(=O)N(C)[C@H]2C/C=C\CCN(C2=O)[C@@H](CC2CCC(F)(F)CC2)C(=O)N(C)CC(=O)N[C@@H](CCc2ccc(C(F)(F)F)c(OC)c2)C(=O)N2C[C@@H](C)C[C@H]2C(=O)N(C)C2(CCC2)C(=O)N(C)[C@@H](C2CCCC2)C(=O)N(C)[C@H](C(=O)N(C)C)CC(=O)N1C` [PP2376] here?
A: A (a compound having 10 or more and less than 20 is denoted as A)

Q: What about the “HRAS/KRAS (ratio of KD value with respect to HRAS to KD value with respect to KRAS)” value [2, 4] of the same molecule?
A: A (a compound having 10 or more and less than 20 is denoted as A)

Q: Which “NRAS/KRAS (ratio of KD value with respect to NRAS to KD value with respect to KRAS)” value [1, 3] does the source give for `CCO[C@@H]1C[C@H]2C(=O)NC3(CC(C)(C)C3)C(=O)N(C)[C@@H](C3CCCC3)C(=O)N(C)[C@H](C(=O)N(C)C)CC(=O)N(C)[C@@H](CC)C(=O)N[C@@H]([C@@H](C)CC)C(=O)N(C)CC(=O)N(C)[C@H]3C/C=C\CCN(C3=O)[C@@H](Cc3ccc(C(F)F)cc3)C(=O)N(C)CC(=O)N[C@@H](CCc3cc(F)c(C(F)(F)F)c(F)c3)C(=O)N2C1` [PP2049] here?
A: A (a compound having 10 or more and less than 20 is denoted as A)

Q: What about the “HRAS/KRAS (ratio of KD value with respect to HRAS to KD value with respect to KRAS)” value [2, 4] of the same molecule?
A: B (a compound having 3 or more and less than 10 is denoted as B)

Q: With `CCO[C@@H]1C[C@H]2C(=O)NC3(CCC3)C(=O)N(C)[C@@H](C3CCCC3)C(=O)N(C)[C@H](C(=O)N(C)C)CC(=O)N(C)[C@@H](C)C(=O)N[C@@H]([C@@H](C)CC)C(=O)N(C)CC(=O)N(C)[C@H]3C/C=C\CCN(C3=O)[C@@H](Cc3ccc(C(F)(F)F)cc3)C(=O)N(C)CC(=O)N[C@@H](CCc3cc(F)c(C(F)(F)F)c(F)c3)C(=O)N2C1` [PP1108] as the molecule, how does the “NRAS/KRAS (ratio of KD value with respect to NRAS to KD value with respect to KRAS)” value [1, 5] read?
A: A (a compound having 10 or more and less than 20 is denoted as A)

Q: What about the “HRAS/KRAS (ratio of KD value with respect to HRAS to KD value with respect to KRAS)” value [2, 6] of the same molecule?
A: A (a compound having 10 or more and less than 20 is denoted as A)

Q: What does the source list for `CCCN1C(=O)[C@@H]2CCN2C(=O)[C@H](C)N(C)C(=O)[C@H]([C@@H](C)CC)NC(=O)[C@H](CC(C)C)N(C)C(=O)C[C@@H](C(=O)N(C)C)N(C)C(=O)[C@H](C(CC)CC)N(C)C(=O)C2(CCC2)NC(=O)[C@@H]2CCCN2C(=O)[C@H](CCc2ccc(C(F)(F)F)c(Cl)c2)NC(=O)CN(C)C(=O)[C@@H]1Cc1ccc(C(F)(F)F)cc1` [PP1961] ([NMeL]I[NMeA][Aze][NPrPhe(4-CF3)][Sar][hPhe(3-Cl-4-CF3)]P[Ac4c][NMeNva(3-Et)][NMeD]-NMe2; lactam N-11)?
A: NRAS/KRAS (ratio of KD value for NRAS to KD value for KRAS) [1, 5]: C (A compound having a KD ratio of 0.1 or more and less than 3 is denoted as C); HRAS/KRAS (ratio of KD value for HRAS to KD value for KRAS) [2, 6]: C (A compound having a KD ratio of 0.1 or more and less than 3 is denoted as C)
